Reference: publication PMC5519041, “Differing roles for short chain fatty acids and GPR43 agonism in the regulation of intestinal barrier function and immune responses” (PLoS ONE, 2017)
Like-named read-outs stand apart in the source and are kept apart here.

Columns and labels:
human GPR43 = target: T1, human GPR43 (Homo sapiens, UniProt O15552); assay: cAMP inhibition assay (HTRF), forskolin-induced cAMP in CHO cells stably expressing human GPR43; format: cell-based; conditions: inhibition of forskolin-induced cAMP production
T1 construct: expressed in transfected cells
T1 sequence (O15552 1-330): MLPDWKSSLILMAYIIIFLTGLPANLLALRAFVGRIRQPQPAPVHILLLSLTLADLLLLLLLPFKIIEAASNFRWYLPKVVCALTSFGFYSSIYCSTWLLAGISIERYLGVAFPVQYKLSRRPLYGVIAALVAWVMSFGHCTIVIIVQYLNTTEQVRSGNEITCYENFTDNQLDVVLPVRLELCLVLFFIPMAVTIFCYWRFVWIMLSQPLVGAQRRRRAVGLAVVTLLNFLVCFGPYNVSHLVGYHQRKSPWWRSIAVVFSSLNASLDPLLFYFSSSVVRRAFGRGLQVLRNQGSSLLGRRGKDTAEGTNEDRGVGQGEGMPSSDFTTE
Experimental: A competitive, HTRF® immunoassay (CisBio Dynamic 2 cAMP kit) was used to measure the inhibition of cAMP response in CHO cells stably expressing human GPR43. Assay-ready cells were thawed, resuspended in PBS and stimulated with forskolin (3μM final) for 45 minutes at room temperature in the presence of serially diluted natural ligands or test compounds in a 384 well plate (Greiner). Subsequently the cells were lysed by adding lysis buffer containing the cAMP-Tracer and Europium-labeled anti-cAMP antibody according to the manufacturer’s protocol. The signals were recorded using a Perkin Elmer Envision. The raw data was calculated as fluorescence ratio (665nm/620nm) and analyzed using GraphPad Prism Software.

human FFA2 receptor = target: T2, human FFA2 receptor (Homo sapiens, UniProt O15552); assay: Aequorin assay, cytosolic calcium in CHO-K1 cells stably expressing aequorin and human FFA2 receptor; format: cell-based; conditions: CHO-K1 cells stably expressing human GPR43, read-out: Ca^2+ (Aequorin)
T2 construct: expressed in transfected cells
T2 sequence (O15552 1-330): T1 sequence (O15552 1-330)
Experimental: Agonist-induced receptor activation was determined by an increase in cytosolic calcium concentration in CHO-K1 cells stably expressing the mitochondrial targeted aequorin and human FFA2 receptor. The increased cytosolic calcium was monitored by luminescence emitted from aequorin as previously described

human PBMC = assay: LPS stimulation of PBMC, cytokine production; format: cell-based; conditions: for effect on LPS-induced cytokine production: μM range; for effect on LPS-induced cytokine production / IC50: 1 μg/mL LPS, 18 hours; for IC50: Homo sapiens, PBMC, 45 minutes preincubation
Experimental: Amgen Institutional Review Board approval and consent was obtained for collection and the studies involving human blood. PBMC were isolated from heparinized blood using Ficoll and then plated onto 96-well plates. Butyrate or GPR43 agonists were incubated with the PBMC for 45 minutes prior to the addition of 1 μg/mL lipopolysaccharide (LPS). Cell culture supernatants were collected at 18 hours post-stimulation. TNFα, IL-1β and IL-6 production were measured using Meso Scale Discovery multiplex kits.

human T cells = assay: One-way mixed lymphocyte reaction, T cell proliferation and cytokines; format: cell-based
Description: Amgen Institutional Review Board approval and consent was obtained for collection and the studies involving human blood. PBMC were obtained from volunteers’ human blood using Ficoll. T cells were isolated using magnetic sorting with a pan T cell isolation kit (Miltenyi Biotec). Stimulator cells were isolated by negative magnetic sorting using anti-CD3 beads to deplete CD3+ cells. The stimulator cells were irradiated and mixed together with the purified T cells in the presence or absence of the SCFA or agonist. Supernatants were collected at day 3 for cytokine measurements using Meso Scale Discovery multiplex kits, and proliferation was measured at day 4 after an 18 hour pulse with 1μCi 3H-thymidine per well.

C2BBe1 cells [1] = assay: Intestinal barrier function by ECIS in C2BBe1 cells; format: cell-based, human; conditions: 48 hours; for barrier resistance (ECIS), barrier formation: 75 Hz, #58 at 1 uM and 10 uM vs DMSO control
Experimental: Cells were cultured in DMEM containing 10% FBS, and the next day (day 1), the medium was replaced with that containing 0.5% serum. On day 2, media was changed and test agents were added in duplicate in media containing 0.5% serum. The experiment was concluded 48 hours later (day 4). Barrier resistance was measured on the ECIS instrument. The plots shown are at 75 Hz beginning at day 2 post-addition of the test agents with resistance values normalized to those observed just prior to the addition of test agents. For barrier disruption and reformation studies, cells were cultured in transwells in the ECIS array as described above in the presence of 10% serum for one day and 0.5% serum for another day. On day 2, the media was replaced with media containing 0.5% serum and 2.5 mM EGTA (in apical and basolateral chambers). The EGTA was washed off 5 hours later and replaced with media containing 0.5% serum and test agents. Cells were monitored over the next 48 hours for barrier reformation and the plots shown are at 75 Hz with resistance values normalized to those observed just prior to the addition of test agents.

[2] = test system: intestinal epithelial cells; parameters: method as in PMID 9142899, PMID 17211138; conditions: published data ref [13], [15]; cited from earlier work
C2BBe1 cells [3] = assay: Intestinal barrier function by TEER and Lucifer Yellow in C2BBe1 monolayers
[4] = 72 h, supernatant day 3, read-out: IL-17A IC50

EC50 (human GPR43)	EC50 (human FFA2 receptor; 10% FBS)	EC50 (human FFA2 receptor; No FBS)	Compound	effect on LPS-induced cytokine production (human PBMC)	IC50 (human T cells; [4])	barrier resistance (ECIS), barrier formation (C2BBe1 cells [1])	barrier reformation after EGTA disruption (ECIS resistance) (C2BBe1 cells [1]; 2.5 mM EGTA 5 hours, then test agents)	IC50 (human PBMC; read-out: IL-1β IC50)	IC50 (human PBMC; read-out: IL-6 IC50)	IC50 (human PBMC; read-out: TNFα IC50)	cell viability (human PBMC; highest concentrations utilized in this assay)	IC50 (human T cells; 72 h, supernatant day 3, read-out: IFNγ IC50)	IC50 (human T cells; day 4, 3H-thymidine, read-out: Proliferation IC50)	concentrations toxic to intestinal epithelial cells [2]	toxicity in TEER assays (C2BBe1 cells [3]; 5 mM)	effect on transepithelial electrical resistance (TEER) (C2BBe1 cells [3]; C2BBe1 monolayers, day 5)
1.1 µM	1 µM	0.6 µM	CC(C)[C@H](C(=O)Nc1ncc(F)s1)c1ccc(Cl)cc1 [#44]	only the highest concentration of the agonist #44 resulted in inhibition of cytokine production	2.45 µM											
1.8 µM	0.6 µM	0.3 µM	CC(C)(C)[C@H](C(=O)Nc1ncc(-c2ccccc2)s1)c1ccc(Cl)cc1 [#58]	slight increase in some cytokines	8.88 µM	did not result in increased resistance										
1060 µM			CCCC(=O)O [Butyrate, butyrate]		60 µM	quicker increase, as well as higher measurements of resistance	earlier and higher levels of resistance	440 µM	2440 µM	130 µM	not altered	50 µM	170 µM	> 5000 µM	appeared to be toxic	most potent of the three SCFA
